# Experimental data taken from patent US20210253562A1, “ACYLSUFONAMIDE COMPOUNDS USEFUL AS EP3 RECEPTOR ANTAGONISTS” (Janssen Pharmaceutica NV, priority 2018, published 2021).
# Read-outs that look alike come from different tables or passages of the source.
# Columns and labels:
# [1] = target: T1, EP3 membrane (EP3 receptor) (Homo sapiens, UniProt P43115); test: [3H]-PGE2 binding; EP3 competition binding (SPA)
# T1 construct: purchased Millipore HTS092M
# T1 sequence (P43115 1-390): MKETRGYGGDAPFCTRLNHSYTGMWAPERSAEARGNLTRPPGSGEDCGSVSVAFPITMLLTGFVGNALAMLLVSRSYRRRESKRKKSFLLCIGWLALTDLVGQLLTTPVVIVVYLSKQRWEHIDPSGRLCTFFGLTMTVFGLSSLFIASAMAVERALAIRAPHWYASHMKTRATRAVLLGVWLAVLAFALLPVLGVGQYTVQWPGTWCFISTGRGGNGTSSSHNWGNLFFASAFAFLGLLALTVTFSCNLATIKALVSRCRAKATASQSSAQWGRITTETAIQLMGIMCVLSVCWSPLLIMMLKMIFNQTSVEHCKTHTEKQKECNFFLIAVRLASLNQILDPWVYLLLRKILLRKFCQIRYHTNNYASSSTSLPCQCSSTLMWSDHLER
# Procedure, shortened: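 Ki derived from one-site nonlinear regression of scintillation proximity counts after 2 h room-temperature equilibration. Serially diluted (1:3) compounds competed against [3H]-PGE2 (2 nM) for EP3 receptor membranes (2 μg/well) in pH 7.4 Tris buffer with 10 mM MgCl2, 1 mM EDTA, 0.1% DMSO.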
# [2] = target: T2, CHO cells over-expressing the EP3 receptor (Homo sapiens, UniProt P43115); test: CHO cell cAMP assay; EP3 cAMP antagonist dose response (sulprostone reference), HTRF; format: cell-based; conditions: sulprostone 700 nM (EC80) and FSK 2 μM (EC70); read-out: CHO_cAMP IC50
# T2 construct: expressed in transfected cells; host or cells: CHO cells
# T2 sequence (P43115 1-390): T1 sequence (P43115 1-390)
# Procedure: Biological Example 2: CHO Cell cAMP Assay
# This assay monitored the cAMP generation in CHO cells over-expressing the EP3 receptor in the presence or absence of antagonist stimulated with Forskolin (FSK, CAS No. 66428-89-5) and a known EP3 Agonist (sulprostone, CAS No. 60325-46-4). For detection, a homogeneous competitive immunoassay (Time Resolved Fluorescence Energy Transfer (hTR-FRET)) was used.
# Cells (6K cells per well) were plated in Poly-D-Lysine coated plates the day before the assay was to be run and were incubated at 37° C. One hour before the assay the media was removed and replaced with assay buffer (500 mL HBSS (+Ca)+2.5 mL 1M HEPES+6.66 mL 7.5% BSA) (starved at 37° C.). At the start of the assay the buffer was removed from the cells and replaced with buffer containing test compound(s). Sulprostone at an EC80 dose (700 nM) and FSK at an EC70 dose (2 μM) were added to initiate the reaction (37° C. for 30 minutes).
# FSK increases cAMP production and sulprostone decreases cAMP production produced by FSK. In this assay, EP3 antagonists will increase the cAMP to the level of cAMP generated by FSK alone.
# The reaction was terminated with the addition of cAMP detection reagents (labeled cAMP and labeled cAMP antibody in lysis buffer (HTRF reagent, which utilizes a cryptate-labeled anti-cAMP and d2-labeled cAMP-d2 is an HTRF acceptor fluorophore)). Approximately one hour later the plates were read on an Envision (Perkin Elmer) in HTRF mode. Well results were calculated based on a ratio of counts at 665 nm and 615 nm (data output was a calculation of the ratio: (read @665 nm/read @ 615 nm)*1000. For test compounds dosed serially, well results were converted to nM cAMP using a cAMP standard run on each plate. nM cAMP from a set of wells dosed with test compound(s) were plotted. nM cAMP was calculated for each well from a standard curve located on each plate (P1-12 and P13-24) by first calculating the slope and deriving the intercept(b):
# [formula] NScAMP_s tan dard_cruve=m(nM cAMP_s tan dard_curve)+b
# NSP, NSN, NSsample were converted to nM cAMP using the following equation: […]
# IC50 values were determined from a […] (Hill equation) of a single 11-point compound dosing. A best-fit curve was determined by the minimum sum of squares method plotting cAMP produced vs compound concentration.
SMILES,Ki [1] [nM],IC50 [2] [µM],Ki ([1]; unit nM) [nM]
"COc1ccc(F)cc1S(=O)(=O)NC(=O)NC/C=C1\COCc2cnn(Cc3ccc(Cl)cc3Cl)c21 [Compound #64, (Z)—N-((2-(1-(2,4-dichlorobenzyl)-1,4-dihydropyrano[4,3-c]pyrazol-7(6H)-ylidene)ethyl)carbamoyl)-5-fluoro-2-methoxybenzenesulfonamide]",12,0.081,
"O=C(C/C=C1\CCCc2cnn(Cc3ccc(Cl)cc3Cl)c21)NS(=O)(=O)c1cccs1 [Compound #20, (E)-3-(1-(2,4-dichlorobenzyl)-1,4,5,6-tetrahydro-7H-indazol-7-ylidene)-N-(thiophen-2-ylsulfonyl)propenamide]",280,1,
"COc1ccc(-n2ncc3c2/C(=C/CNC(=O)NS(=O)(=O)c2cc(Cl)c(Cl)s2)CCC3)cn1 [Compound #107, (E)-4,5-dichloro-N-((2-(1-(6-methoxypyridin-3-yl)-1,4,5,6-tetrahydro-7H-indazol-7-ylidene)ethyl)carbamoyl)thiophene-2-sulfonamide]",2,0.027,
"O=C(NC/C(F)=C1\COCc2cnn(-c3ccc(C(F)(F)F)cc3)c21)NS(=O)(=O)c1ccc(Cl)cc1 [Compound #118, (E)-4-chloro-N-((2-fluoro-2-(1-(4-(trifluoromethyl)phenyl)-1,4-dihydropyrano[4,3-c]pyrazol-7(6H)-ylidene)ethyl)carbamoyl)benzenesulfonamide]",2000,16,
"CC(C)S(=O)(=O)NC(=O)C/C=C1\CCCc2cnn(Cc3ccc(Cl)cc3Cl)c21 [Compound #14, (E)-3-(1-(2,4-dichlorobenzyl)-1,4,5,6-tetrahydro-7H-indazol-7-ylidene)-N-(isopropylsulfonyl)propenamide]",2000,3.7,
"O=C(NC/C(F)=C1\CCCc2cnn(Cc3ccc(C(F)(F)F)cc3)c21)NS(=O)(=O)c1cc2ccccc2o1 [Compound #132, (Z)—N-((2-fluoro-2-(1-(4-(trifluoromethyl)benzyl)-1,4,5,6-tetrahydro-7H-indazol-7-ylidene)ethyl)carbamoyl)benzofuran-2-sulfonamide]",350,3.9,
"O=C(NC/C(F)=C1\CCCc2cnn(Cc3ccc(Cl)cc3Cl)c21)NS(=O)(=O)c1cc(Cl)c(Cl)s1 [Compound #40, (Z)-4,5-dichloro-N-((2-(1-(2,4-dichlorobenzyl)-1,4,5,6-tetrahydro-7H-indazol-7-ylidene)-2-fluoroethyl)carbamoyl)thiophene-2-sulfonamide]",1,0.001,
"O=C(NC/C=C1\CCCc2cn(Cc3ccc4ccccc4c3)nc21)NS(=O)(=O)c1cc(Cl)c(Cl)s1 [Compound #87, (E)-4,5-dichloro-N-((2-(2-(naphthalen-2-ylmethyl)-2,4,5,6-tetrahydro-7H-indazol-7-ylidene)ethyl)carbamoyl)thiophene-2-sulfonamide]",110,0.435,
"O=C(NC/C=C1\CCCc2cnn(Cc3ccc(Cl)cc3Cl)c21)NS(=O)(=O)c1cccs1 [Compound #10, (E)-N-((2-(1-(2,4-dichlorobenzyl)-1,4,5,6-tetrahydro-7H-indazol-7-ylidene)ethyl)carbamoyl)thiophene-2-sulfonamide]",15,0.028,
O=C(NS(=O)(=O)c1ccc(Cl)cc1)OC/C=C1\CCCc2cnn(-c3ncccn3)c21 [compound 95],> 10000,> 20,
"COc1ccc(Cn2ncc3c2/C(=C(\F)CNC(=O)NS(=O)(=O)c2cc(Cl)c(Cl)s2)CCC3)cn1 [Compound #141, (Z)-4,5-dichloro-N-((2-fluoro-2-(1-((6-methoxypyridin-3-yl)methyl)-1,4,5,6-tetrahydro-7H-indazol-7-ylidene)ethyl)carbamoyl)thiophene-2-sulfonamide]",215,0.75,
"O=C(NC/C(F)=C1/c2c(cnn2Cc2ccc(Cl)cc2Cl)CCC1F)NS(=O)(=O)c1ccc(Cl)cc1 (stereo not drawn) [Compound #101, (E)-4-chloro-N-((2-(1-(2,4-dichlorobenzyl)-6-fluoro-1,4,5,6-tetrahydro-7H-indazol-7-ylidene)-2-fluoroethyl)carbamoyl)benzenesulfonamide]",53,0.144,
"O=C(NC/C=C1\CCCc2cnn(Cc3cnc(-c4ccccc4)nc3)c21)NS(=O)(=O)c1cc(Cl)c(Cl)s1 [Compound #138, (E)-4,5-dichloro-N-((2-(1-((2-phenylpyrimidin-5-yl)methyl)-1,4,5,6-tetrahydro-7H-indazol-7-ylidene)ethyl)carbamoyl)thiophene-2-sulfonamide]",,0.006,0.4
"O=C(NC/C=C1\CC(F)(F)Cc2cnn(Cc3ccc(Cl)cc3Cl)c21)NS(=O)(=O)c1ccc(Cl)cc1 [Compound #48, (E)-4-chloro-N-((2-(1-(2,4-dichlorobenzyl)-5,5-difluoro-1,4,5,6-tetrahydro-7H-indazol-7-ylidene)ethyl)carbamoyl)benzenesulfonamide]",5,0.014,

# Continued, values first:
Ki [1] [nM],IC50 [2] [µM],Ki ([1]; unit nM) [nM],SMILES
17,0.214,,"O=C(NC/C=C1\CCCc2cnn(-c3cccc(C(F)(F)F)c3)c21)NS(=O)(=O)c1cc(Cl)c(Cl)s1 [Compound #92, (E)-4,5-dichloro-N-((2-(1-(3-(trifluoromethyl)phenyl)-1,4,5,6-tetrahydro-7H-indazol-7-ylidene)ethyl)carbamoyl)thiophene-2-sulfonamide]"
97,0.266,,"O=C(NC/C(F)=C1\COCc2cnn(Cc3ccc(Cl)cc3Cl)c21)NS(=O)(=O)c1ccc(Cl)cc1 [Compound #83, (E)-4-chloro-N-((2-(1-(2,4-dichlorobenzyl)-1,4-dihydropyrano[4,3-c]pyrazol-7(6H)-ylidene)-2-fluoroethyl)carbamoyl)benzenesulfonamide]"
65,0.12,,"O=C(NC/C=C1\CCCc2c(C(F)F)nn(Cc3ccc(Cl)cc3Cl)c21)NS(=O)(=O)c1ccc(Cl)cc1 [Compound #47, (E)-4-chloro-N-((2-(1-(2,4-dichlorobenzyl)-3-(difluoromethyl)-1,4,5,6-tetrahydro-7H-indazol-7-ylidene)ethyl)carbamoyl)benzenesulfonamide]"
12,0.258,,"O=C(NC/C=C1\CCCc2cnn(-c3cccc(Br)c3)c21)NS(=O)(=O)c1cc(Cl)c(Cl)s1 [Compound #77, (E)-N-((2-(1-(3-bromophenyl)-1,4,5,6-tetrahydro-7H-indazol-7-ylidene)ethyl)carbamoyl)-4,5-dichlorothiophene-2-sulfonamide]"
40,0.182,,"O=C(NC/C(F)=C1\CCc2cnn(-c3ccc(C(F)(F)F)cc3)c21)NS(=O)(=O)c1cc(Cl)c(Cl)s1 [Compound #130, (Z)-4,5-dichloro-N-((2-fluoro-2-(1-(4-(trifluoromethyl)phenyl)-4,5-dihydrocyclopenta[c]pyrazol-6(1H)-ylidene)ethyl)carbamoyl)thiophene-2-sulfonamide]"
28,0.069,,"O=C(NC/C(F)=C1\CCCc2cnn(Cc3ccc(Cl)cc3Cl)c21)NS(=O)(=O)c1ccc(Cl)cc1 [Compound #86, (Z)-4-chloro-N-((2-(1-(2,4-dichlorobenzyl)-1,4,5,6-tetrahydro-7H-indazol-7-ylidene)-2-fluoroethyl)carbamoyl)benzenesulfonamide]"
14500,> 20,,"O=C(NC/C(F)=C1\CCCc2cnn(-c3ccc4ccccc4c3)c21)NS(=O)(=O)c1ccc2c(c1)OCCO2 [Compound #114, (Z)—N-((2-fluoro-2-(1-(naphthalen-2-yl)-1,4,5,6-tetrahydro-7H-indazol-7-ylidene)ethyl)carbamoyl)-2,3-dihydrobenzo[b][1,4]dioxine-6-sulfonamide]"
